Data: patent US20070270403A1 (priority 2003, published 2007)
Read-outs that look alike come from different tables or passages of the source.

Experiments:
[1] = cited from earlier work
[2] = independent of the rate of metabolism; cited from earlier work
[3] = test system: DA release in NAcc; assay: In vivo microvoltammetry, DA release in NAcc (clozapine studies); design: species or system Sprague-Dawley Rattus Norvegicus; conditions: Acute, clozapine 20 mg/kg i.p. + cocaine 10 mg/kg i.p.
Description: (§1) There is an increasing awareness that a psychosis, similar to that of schizophrenic psychosis, can be derived from cocaine addiction. […] Release mechanisms for monoamines, were determined by using a depolarization blocker, gamma-butyrolactone (γBL). […] Acute and Subacute studies were performed for each treatment group.
(§2) The stereotaxic equipment was purchased from David Kopf Instruments, Tujunga, Calif. A Ag/AgCl reference electrode was placed in contact with dura, 7 mm anteriorally and contralaterally to the indicator microelectrode. A stainless steel auxiliary microelectrode was placed in contact with dura. BRODERICK PROBE® microelectrodes were manufactured on site.
(§3) In vivo microvoltammetric studies on conscious Sprague-Dawley laboratory rats were begun nine to fifteen days after the aseptic surgical operations were performed. On each experimental day, the animal was placed in a Plexiglas-copper faradaic chamber. The three-microelectrode assembly, enclosed within the animal's prosthetic acrylic cap, was connected to a CV37 detector by means of a mercury commutator (Br. Res. Instr., Princeton, N.J.), a flexible cable, and a mating connector (BJM Electronics, Staten Island, N.Y.). The CV37 detector was electrically connected to a Minigard surge suppresser (Jefferson Electric, Magnetek, N.Y.) which was then connected to an electrical ground in isolation. […] Each animal was used as its own control. Changes in synaptic concentrations of DA and 5-HT are presented as percent change (% of control) in order to minimize normal between-animal variations. […] In vivo microvoltammetric scans were recorded in sec and repeated every five min for a period of 2 hrs before each treatment and a period of two hrs after each treatment.
(§4) Potentials were applied with a CV37 detector (BAS, West Lafayette, Ind.). Potentials were applied from −0.2V to +0.4V with respect to a Ag/AgCl (1M NaCl) electrode, at a scan rate of 10 mV/sec at time constants of 5 and 1 tau. One scan was completed in 60 sec. Non-faradaic charging current was eliminated in the first 25 sec.
(§5) Calibration curves were determined experimentally, in vitro, in a freshly prepared deoxygenated physiological saline-phosphate buffer solution (0.01 M, pH=7.4). We use ultra pure Nitrogen (N2) (T. W. Smith Corp., Bklyn, N.Y.) to deoxygenate the buffer solution. […] Calibration studies were also performed in freshly prepared deoxygenated buffer solutions containing phosphotidylethanolamine (PEA), combined with bovine serum albumin (BSA) (Sigma Aldrich, St. Louis, Mo.), a solution which closely mimics brain constituents. […] Detection limits for basal synaptic concentrations of DA and 5-HT in NAcc were 12 nM and 2 nM respectively.

[4] = test system: 5-HT release in NAcc; assay: In vivo microvoltammetry, 5-HT release in NAcc (clozapine studies); design: species or system Sprague-Dawley Rattus Norvegicus; conditions: Acute, clozapine 20 mg/kg i.p. + cocaine 10 mg/kg i.p.
Description: as §1, §2, §3, §4, §5

[5] = test system: Sprague-Dawley laboratory rats; assay: Locomotor activity (ambulations) by infrared photobeams (clozapine studies); type: in vivo, Sprague-Dawley Rattus Norvegicus; conditions: Acute, clozapine 20 mg/kg i.p. + cocaine 10 mg/kg i.p.
Description: Locomotor activity (ambulation) was monitored with infrared photobeams at the same time as DA and 5-HT release in NAcc was detected with BRODERICK PROBES® in conjunction with In Vivo Microvoltammetry. The chamber was faradaic, covered with copper to refract possible electrical artifacts (dimensions: 24 in (width) by 18 in (depth) by 23.5 in (height)). A 16 by 16 array of these infrared photobeams, were held in place by an aluminum frame which was situated ¾ in above the Plexiglas floor of the chamber to detect locomotor activity. Photobeams were sampled by a Pentium computer to define the x-y position of the animal within a 1.5 in resolution every 100 msec. When an x-y position was calculated, it was used to define the frequency of locomotor activity in counts. The locomotor activity system is a modified version of an Activity Pattern Monitor (APM) (San Diego Instruments, San Diego, Calif.). Behavioral data is presented in absolute frequency, i.e., number of counts recorded.
The first hr pre-drug allowed exploratory behavior. Exploratory behavior is defined as open-field behavior of ambulations (forward locomotion) wherein animals respond to the stimuli of a novel environment with high frequency of behavioral counts. The second hr pre-drug allowed the animal to become habituated before treatment.
In the Acute studies, each drug was administered at the end of the habituation period. Baseline (control) values were taken every five min for the last thirty min of the habituation period at which time drug injection(s) took place. Electrochemical recordings for DA and 5-HT release in NAcc, were continued for two hrs; at the same time, locomotor behavior continued to be monitored and recorded with infrared photobeams. At the end of the 2 hr drug(s) study, animals were then placed back in their home cages.
In the Subacute studies, which took place twenty-four hrs later, the animals were again placed in the faradaic behavioral chamber and no further drug was administered. Recordings of separate electrochemical signals for DA and 5-HT release in NAcc, were taken for one hr; at the same time, locomotor behavior was monitored and recorded with infrared photobeams.
Neurochemical and behavioral data, derived from the last thirty minutes of the habituation period, provided the baseline data. […] Where appropriate, data points in the time course were subjected to 95% Confidence Limits (C.L.).

[6] = cited from earlier work; remark: listed apart in the source

COC(=O)[C@H]1[C@@H](OC(=O)c2ccccc2)C[C@@H]2CC[C@H]1N2 [norcocaine]
Detection in brain ([1]; after i.v. cocaine (20-40 mg/kg)): not detected at all

Cc1nc2n(c(=O)c1CCN1CCC(c3noc4cc(F)ccc34)CC1)CCCC2O (centres unmarked) [9-hydroxyrisperidone]
Time for which the metabolite is active [2]: 22 h

CN1CCN(C2=Nc3cc(Cl)ccc3Nc3ccccc32)CC1 [Clozapine, clozapine]
Average reduction of cocaine-induced increases in DA release in NAcc ([3]; first hr of study): 40% | Average reduction of cocaine-induced increases in DA release in NAcc ([3]; second hr of study): 50% | Average reduction of cocaine-induced increases in 5-HT release in NAcc ([4]; first hr of study): 138% | Average reduction of cocaine-induced increases in 5-HT release in NAcc ([4]; second hr of study): 113% | Average reduction of locomotor activity (ambulation counts) produced by cocaine ([5]; first half hr): 500 counts | Average reduction of locomotor activity (ambulation counts) produced by cocaine ([5]; next hr of study): 150 counts | half-life ([6]; at higher doses): 4 to 66 h | half-life ([6]; at lower doses): 8 h

CN1[C@H]2CC[C@@H]1[C@@H](C(=O)O)[C@@H](OC(=O)c1ccccc1)C2 [benzoylecgonine]
elimination half-life ([1]; after bolus injections (e.g., 14.7 umol/kg)): 40 to 44 min
